In US8709392B2, “Cosmetic/dermatological compositions comprising naphthoic acid compounds and polyurethane polymers” (Galderma Research & Development, priority 2005, dated 2014):

Assays:
[1] = test system: skin of the ear of the BALB/c mouse; assay: Tolerance study in BALB/c mice (ear thickness after repeated topical applications); assay type: in vivo
Experimental: The present study is for comparing the irritant power of a reference gel containing 0.1% adapalene with that of three 0.1% adapalene formulations in gel form containing a polyurethane polymer at various concentrations, and also placebos thereof, on the skin of the ear of the BALB/c mouse after repeated topical applications for 6 days.
The daily topical application (20 μl) of the test products is performed on the inner face of the ear of BALB/c mice divided into ten groups (female mice about 8 weeks old) at a rate of one application per day for 6 days. The test products are:
The evaluation is performed by measuring the thickness of the ear by means of the Oditest and by clinical observation of the animals from the 2nd to the 19th day.

[2] = test system: skin of the back of RHINO FVB/N RJ-hr^rh mice (Rhino); assay: Study of the comedolytic activity on Rhino mice; assay type: in vivo, mouse; conditions: for Change in weight of the Rhino mice (%) D19-D1, Mean: 50 μl topical daily for 18 days; for increase in transepidermal water loss (TWL), AUC: Rhino mice, after 18 days of topical treatment
Experimental: The present study is aimed at evaluating the comedolytic activity of the reference gel containing 0.1% adapalene and of two 0.1% adapalene formulations in gel form with a polyurethane polymer at different concentrations, and also their placebos, on the skin of the back of RHINO FVB/N RJ-hr^rh mice (Rhino) after repeated topical applications for 18 days.
The daily topical application (50 μl) of the test products is performed on the skin of the back of Rhino mice divided into seven groups (approximately 7-week-old mice) at a rate of one application per day for 18 days. The test products are:
The tolerance evaluation is made by clinical observation of the dorsal epidermis with the following observation parameters: oedema, erythema and squamae 3 times a week for 19 days.
The comedolytic activity is evaluated by measuring the transepidermal water loss (TWL) on days D4, D11 and D19, by measuring the thickness of the epidermis, by counting the number of comedones/cm and by weighing the animals on days D1, D4, D11 and D19.
The TWL quantifies the impairment in the skin barrier by measuring the gradient of water vapor that is established in a layer 10 mm thick above the surface of the skin.

Compound | irritant power ([1]; BALB/c mouse ear thickness kinetics D2-D19) | Increase in AUC versus placebo (%) ([1]; ear thickness AUC D2-D19, BALB/c mouse, relative to own placebo) | Change in weight of the Rhino mice (%) D19-D1, Mean [2] | increase in transepidermal water loss (TWL), AUC [2]
COc1ccc(-c2ccc3cc(C(=O)O)ccc3c2)cc1C12CC3CC(CC(C3)C1)C2 [acetone+0.1% (m/m) adapalene, 6-[3-(1-adamantyl)-4-methoxyphenyl]-2-naphthoic acid] | also irritant | 30% | 9.2% | 299%
CC1(C)CCC(C)(C)c2cc(-c3cc4ccc(C(=O)O)cc4s3)ccc21 [2-(5,5,8,8-tetramethyl-5,6,7,8-tetrahydronaphthalen-2-yl)benzo[b]thiophene-6-carboxylic acid] |  |  | 10.4% | 332%
